Source: patent US8415469B2, “Compounds and methods for kinase modulation, and indications therefor” (Plexxikon Inc., priority 2005, dated 2013)

Experiments:
Format in all cases: biochemical
Met = target: T1, Met (Homo sapiens, UniProt P08581); assay: AlphaScreen kinase assay, Met; conditions: read-out: IC50, activity toward kinase Met
T1 construct: P1818.pETN6 BI-PTP MET G1056-G1364-X WT; His6 (N); made in house; host or cells: E. coli (PTP1B co-expressed)
Outline: (§1)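 Peptide phosphorylation detected by proximity: streptavidin donor beads bind biotinylated substrate, acceptor beads carry antibody to phosphorylated substrate, singlet oxygen transfer gives emission. Dose-response over 8 points (1:3 steps); stocks 20 mM in DMSO.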

B-Raf V600E = target: T2, B-Raf V600E (Homo sapiens, UniProt P15056, V600E); assay: AlphaScreen kinase assay, B-Raf V600E; conditions: read-out: IC50, activity toward kinase B-Raf V600E
T2 construct: P4254. pFastBacBD-CDC37 BRAF D437-K722-X, V600E; His6 with pFastBac HT leader (TEV site) (N); made in house; host or cells: Sf9 (baculovirus; chaperone CDC37 co-expressed)
T2 sequence (P15056 with tags, fused parts or gaps V600E): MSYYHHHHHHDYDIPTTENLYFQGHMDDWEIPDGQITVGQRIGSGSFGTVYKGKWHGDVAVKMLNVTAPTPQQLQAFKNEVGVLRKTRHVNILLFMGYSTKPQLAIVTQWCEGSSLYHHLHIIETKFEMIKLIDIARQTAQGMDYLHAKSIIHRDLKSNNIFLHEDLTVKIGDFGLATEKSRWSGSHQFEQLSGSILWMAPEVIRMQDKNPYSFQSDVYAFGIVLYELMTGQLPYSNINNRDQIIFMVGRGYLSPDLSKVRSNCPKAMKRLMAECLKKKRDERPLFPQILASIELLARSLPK

c-Raf-1 = target: T3, c-Raf-1 (Homo sapiens, UniProt P04049); assay: AlphaScreen kinase assay, c-Raf-1; conditions: read-out: IC50, activity toward kinase c-Raf-1
T3 construct: purchased Upstate Biotechnology
T3 sequence (P04049 whole entry): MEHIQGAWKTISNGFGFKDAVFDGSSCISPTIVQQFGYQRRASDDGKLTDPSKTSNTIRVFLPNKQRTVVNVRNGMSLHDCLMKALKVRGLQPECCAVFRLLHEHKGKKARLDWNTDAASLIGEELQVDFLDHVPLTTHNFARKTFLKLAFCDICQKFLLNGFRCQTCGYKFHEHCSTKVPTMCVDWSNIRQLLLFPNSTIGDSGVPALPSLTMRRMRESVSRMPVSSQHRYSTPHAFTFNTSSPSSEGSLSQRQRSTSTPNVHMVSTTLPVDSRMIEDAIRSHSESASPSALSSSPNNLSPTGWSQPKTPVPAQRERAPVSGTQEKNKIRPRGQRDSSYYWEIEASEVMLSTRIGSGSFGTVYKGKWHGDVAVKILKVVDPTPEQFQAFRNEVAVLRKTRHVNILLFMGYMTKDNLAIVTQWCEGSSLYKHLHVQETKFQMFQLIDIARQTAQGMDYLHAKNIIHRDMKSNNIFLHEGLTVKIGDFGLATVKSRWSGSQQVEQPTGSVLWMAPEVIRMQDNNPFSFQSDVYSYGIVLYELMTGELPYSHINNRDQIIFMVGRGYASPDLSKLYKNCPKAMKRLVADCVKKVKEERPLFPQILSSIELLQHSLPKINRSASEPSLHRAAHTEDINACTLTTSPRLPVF

Btk = target: T4, Btk (Homo sapiens, UniProt Q06187); assay: Z'-Lyte FRET kinase assay (Invitrogen), Btk; conditions: read-out: IC50, activity toward kinase Btk
T4 construct: purchased Invitrogen (assay run by Invitrogen)
T4 sequence (Q06187 whole entry): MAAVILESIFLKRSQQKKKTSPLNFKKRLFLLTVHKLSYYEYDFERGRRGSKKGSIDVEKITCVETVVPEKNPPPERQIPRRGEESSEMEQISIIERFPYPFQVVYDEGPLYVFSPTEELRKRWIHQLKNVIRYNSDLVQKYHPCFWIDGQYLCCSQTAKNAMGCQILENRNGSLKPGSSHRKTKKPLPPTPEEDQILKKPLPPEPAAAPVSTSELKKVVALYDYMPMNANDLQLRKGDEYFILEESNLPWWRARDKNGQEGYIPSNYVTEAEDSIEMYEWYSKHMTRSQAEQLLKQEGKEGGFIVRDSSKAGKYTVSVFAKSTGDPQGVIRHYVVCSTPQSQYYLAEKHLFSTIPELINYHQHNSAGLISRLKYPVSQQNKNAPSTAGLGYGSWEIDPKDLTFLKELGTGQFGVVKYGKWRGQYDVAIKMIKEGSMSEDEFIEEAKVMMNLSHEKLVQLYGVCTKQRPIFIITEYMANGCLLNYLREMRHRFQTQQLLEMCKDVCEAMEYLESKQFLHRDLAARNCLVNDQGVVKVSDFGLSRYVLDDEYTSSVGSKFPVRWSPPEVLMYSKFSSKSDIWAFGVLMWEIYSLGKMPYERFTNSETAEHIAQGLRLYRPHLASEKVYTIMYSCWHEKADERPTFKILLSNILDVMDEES

Ret = target: T5, Ret (Homo sapiens, UniProt P07949); assay: AlphaScreen kinase assay, Ret; conditions: read-out: IC50, activity toward kinase Ret
T5 construct: P1378.pET-SF BI-PTP RET H661-R1012 HIS; made in house
T5 sequence (P07949 with tags, fused parts or gaps): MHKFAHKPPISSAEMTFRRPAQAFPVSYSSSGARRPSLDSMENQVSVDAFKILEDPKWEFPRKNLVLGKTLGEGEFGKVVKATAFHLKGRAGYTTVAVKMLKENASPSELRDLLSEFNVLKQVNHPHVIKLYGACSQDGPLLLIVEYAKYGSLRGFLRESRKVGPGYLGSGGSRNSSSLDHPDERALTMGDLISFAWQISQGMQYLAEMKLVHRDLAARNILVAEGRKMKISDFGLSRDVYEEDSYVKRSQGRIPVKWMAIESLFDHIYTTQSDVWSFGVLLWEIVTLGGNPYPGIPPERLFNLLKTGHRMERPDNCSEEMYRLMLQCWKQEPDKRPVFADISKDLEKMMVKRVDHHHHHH

FGFR1 = target: T6, FGFR1 (Homo sapiens, UniProt P11362, C488A/C584S); assay: AlphaScreen kinase assay, FGFR1; conditions: read-out: IC50, activity toward kinase FGFR
T6 construct: P1351.pET N6 BI-PTP FGFR A458-E765-X C488A, C584S; made in house; host or cells: E. coli (PTP1B co-expressed)
T6 sequence (P11362 458-765 C488A/C584S): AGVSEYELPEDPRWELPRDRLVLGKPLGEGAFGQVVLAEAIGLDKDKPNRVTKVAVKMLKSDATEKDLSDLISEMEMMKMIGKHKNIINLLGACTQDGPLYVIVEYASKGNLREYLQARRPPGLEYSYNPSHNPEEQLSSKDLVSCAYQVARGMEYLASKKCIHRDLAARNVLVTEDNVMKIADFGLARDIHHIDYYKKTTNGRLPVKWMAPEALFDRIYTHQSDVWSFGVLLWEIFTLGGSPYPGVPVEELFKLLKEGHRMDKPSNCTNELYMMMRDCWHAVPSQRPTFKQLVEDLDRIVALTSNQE
Protocol: AlphaScreen assays were done using compounds dissolved in DMSO to a concentration of 20 mM. The compounds were diluted accordingly to the desired final concentrations in each sample well, using 1:3 serial dilution for a total of 8 concentration points. Plates were prepared such that each kinase reaction is 20 μl in 1× kinase buffer, 5% DMSO and 10 μM ATP. After incubation of the kinase reaction for 1 hour at room temperature, 5 μl of donor beads in stop buffer (50 mM EDTA in 1× kinase buffer) was added, the sample was mixed and incubated for 20 minutes at room temperature before adding 5 μl of acceptor beads in stop buffer. The samples were incubated for 60 minutes at room temperature and the signal per well was read on AlphaQuest reader.

TEC = target: T7, TEC (Homo sapiens, UniProt P42680); assay: AlphaScreen kinase assay, TEC; conditions: read-out: IC50, activity toward kinase TEC
T7 sequence (P42680 1-631): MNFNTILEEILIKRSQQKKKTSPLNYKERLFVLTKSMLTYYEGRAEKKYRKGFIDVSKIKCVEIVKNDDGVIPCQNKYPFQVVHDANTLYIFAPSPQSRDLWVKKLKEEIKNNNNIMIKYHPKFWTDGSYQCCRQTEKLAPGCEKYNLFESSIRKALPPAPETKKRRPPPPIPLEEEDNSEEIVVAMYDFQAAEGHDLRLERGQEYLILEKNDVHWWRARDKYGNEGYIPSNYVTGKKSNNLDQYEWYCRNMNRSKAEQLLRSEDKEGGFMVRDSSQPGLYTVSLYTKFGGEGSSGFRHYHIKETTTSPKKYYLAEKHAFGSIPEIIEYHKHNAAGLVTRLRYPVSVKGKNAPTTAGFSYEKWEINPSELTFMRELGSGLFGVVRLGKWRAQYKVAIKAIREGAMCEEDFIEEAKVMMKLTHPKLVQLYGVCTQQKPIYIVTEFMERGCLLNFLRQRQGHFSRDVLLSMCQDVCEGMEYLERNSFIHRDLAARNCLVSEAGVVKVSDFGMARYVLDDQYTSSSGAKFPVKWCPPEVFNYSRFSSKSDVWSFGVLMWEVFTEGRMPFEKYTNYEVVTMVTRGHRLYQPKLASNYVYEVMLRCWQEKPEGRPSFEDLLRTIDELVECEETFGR
Excerpt: AlphaScreen assay was used to screen additional kinases. The assay is similarly dependent on the phosphorylation of a peptide substrate. In this assay, an antibody that recognizes phosphorylated substrate is bound to an acceptor bead. The peptide substrate is attached to biotin, which binds to a donor head that contains streptavidin. Thus phosphorylated substrate is bound by antibody and streptavidin, bringing the donor and acceptor heads into close proximity when kinase is not inhibited. The donor produces singlet oxygen which results in emission from the acceptor when they are in close proximity. Conversely, when kinase is inhibited, the donor and acceptor beads are not associated and the emission from the acceptor is reduced.
AlphaScreen assays were done using compounds dissolved in DMSO to a concentration of 20 mM. The compounds were diluted accordingly to the desired final concentrations in each sample well, using 1:3 serial dilution for a total of 8 concentration points.

Jnk2 = target: T8, Jnk2 (Homo sapiens, UniProt P45984); assay: AlphaScreen kinase assay, Jnk2; conditions: read-out: IC50, activity toward kinase Jnk2
T8 construct: purchased Roche Protein Expression Group (Indianapolis, IN)
T8 sequence (P45984 whole entry): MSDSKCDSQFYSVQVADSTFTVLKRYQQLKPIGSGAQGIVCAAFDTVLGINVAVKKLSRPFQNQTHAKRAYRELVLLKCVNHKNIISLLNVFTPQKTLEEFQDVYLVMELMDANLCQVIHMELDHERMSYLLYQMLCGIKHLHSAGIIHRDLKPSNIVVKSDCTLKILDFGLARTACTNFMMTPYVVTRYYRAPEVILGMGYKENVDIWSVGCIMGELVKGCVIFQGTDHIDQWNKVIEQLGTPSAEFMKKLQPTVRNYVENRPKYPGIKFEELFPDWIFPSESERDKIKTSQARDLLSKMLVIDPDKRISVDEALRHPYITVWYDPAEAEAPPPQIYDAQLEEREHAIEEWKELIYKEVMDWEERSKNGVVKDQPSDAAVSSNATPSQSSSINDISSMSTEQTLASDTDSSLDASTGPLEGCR
Outline: as §1

Jnk1 = target: T9, Jnk1 (Homo sapiens, UniProt P45983); assay: AlphaScreen kinase assay, Jnk1; conditions: read-out: IC50, activity toward kinase Jnk1
T9 construct: purchased Upstate Biotechnology
T9 sequence (P45983 whole entry): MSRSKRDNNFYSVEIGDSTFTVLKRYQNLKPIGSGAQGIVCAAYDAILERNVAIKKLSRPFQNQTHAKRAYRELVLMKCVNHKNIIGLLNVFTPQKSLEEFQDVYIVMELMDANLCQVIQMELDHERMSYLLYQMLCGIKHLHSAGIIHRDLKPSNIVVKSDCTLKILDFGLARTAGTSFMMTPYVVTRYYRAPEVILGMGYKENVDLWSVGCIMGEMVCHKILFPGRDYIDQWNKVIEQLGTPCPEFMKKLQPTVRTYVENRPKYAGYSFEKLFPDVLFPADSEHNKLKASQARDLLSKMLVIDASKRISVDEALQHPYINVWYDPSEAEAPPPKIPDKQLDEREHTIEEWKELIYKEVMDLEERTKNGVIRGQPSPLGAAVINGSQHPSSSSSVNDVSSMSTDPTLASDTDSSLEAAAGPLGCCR

Pyk2 = target: T10, Pyk2 (Homo sapiens, UniProt Q14289); assay: AlphaScreen kinase assay, Pyk2; conditions: read-out: IC50, activity toward kinase Pyk2
T10 construct: purchased Upstate Biotechnology
T10 sequence (Q14289 whole entry): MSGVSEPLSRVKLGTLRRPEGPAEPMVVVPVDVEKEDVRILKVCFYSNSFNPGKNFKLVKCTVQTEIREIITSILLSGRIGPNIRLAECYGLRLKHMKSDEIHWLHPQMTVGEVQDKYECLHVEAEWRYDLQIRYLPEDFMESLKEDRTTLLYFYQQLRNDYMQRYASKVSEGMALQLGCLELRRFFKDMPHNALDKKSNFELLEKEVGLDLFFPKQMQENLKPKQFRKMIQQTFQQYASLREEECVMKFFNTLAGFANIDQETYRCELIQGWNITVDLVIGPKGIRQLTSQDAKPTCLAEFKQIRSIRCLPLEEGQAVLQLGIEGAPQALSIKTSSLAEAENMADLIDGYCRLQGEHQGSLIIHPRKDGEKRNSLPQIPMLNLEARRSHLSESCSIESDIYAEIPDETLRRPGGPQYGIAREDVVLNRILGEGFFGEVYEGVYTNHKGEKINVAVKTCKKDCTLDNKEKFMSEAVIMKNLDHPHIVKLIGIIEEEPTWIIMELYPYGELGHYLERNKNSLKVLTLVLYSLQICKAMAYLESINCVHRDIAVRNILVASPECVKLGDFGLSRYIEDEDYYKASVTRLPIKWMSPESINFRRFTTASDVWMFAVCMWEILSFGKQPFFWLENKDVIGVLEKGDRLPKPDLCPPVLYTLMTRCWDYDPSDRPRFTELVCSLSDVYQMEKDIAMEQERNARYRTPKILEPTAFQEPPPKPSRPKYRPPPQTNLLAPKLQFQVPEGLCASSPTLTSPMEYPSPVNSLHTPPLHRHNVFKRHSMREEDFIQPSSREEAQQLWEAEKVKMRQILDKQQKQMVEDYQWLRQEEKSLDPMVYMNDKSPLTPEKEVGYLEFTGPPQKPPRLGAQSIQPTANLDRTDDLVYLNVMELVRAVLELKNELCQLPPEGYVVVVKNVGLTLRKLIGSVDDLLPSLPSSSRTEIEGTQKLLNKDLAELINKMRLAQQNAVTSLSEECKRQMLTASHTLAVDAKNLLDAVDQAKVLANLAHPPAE

Jnk3 = target: T11, Jnk3 (Homo sapiens, UniProt P53779); assay: AlphaScreen kinase assay, Jnk3; conditions: read-out: IC50, activity toward kinase Jnk3
T11 construct: purchased Upstate Biotechnology
T11 sequence (P53779 whole entry): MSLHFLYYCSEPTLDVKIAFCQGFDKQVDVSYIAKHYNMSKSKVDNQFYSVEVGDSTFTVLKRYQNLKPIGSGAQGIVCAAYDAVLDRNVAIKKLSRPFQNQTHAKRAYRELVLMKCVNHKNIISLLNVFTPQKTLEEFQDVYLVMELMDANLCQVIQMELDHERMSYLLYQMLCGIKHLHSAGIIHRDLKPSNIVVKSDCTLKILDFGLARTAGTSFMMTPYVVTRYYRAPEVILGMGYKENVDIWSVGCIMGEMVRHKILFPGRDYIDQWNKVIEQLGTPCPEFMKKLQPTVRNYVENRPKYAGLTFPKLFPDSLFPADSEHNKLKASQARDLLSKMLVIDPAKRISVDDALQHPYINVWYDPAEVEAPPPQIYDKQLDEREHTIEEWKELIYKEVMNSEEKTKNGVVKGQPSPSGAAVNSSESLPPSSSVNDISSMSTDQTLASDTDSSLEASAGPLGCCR

Fms = target: T12, Fms (Homo sapiens, UniProt P07333); assay: AlphaScreen kinase assay, Fms; conditions: read-out: IC50, activity toward kinase Fms
T12 construct: purchased Upstate Biotechnology

Fak = target: T13, Fak (Homo sapiens, UniProt Q05397); assay: AlphaScreen kinase assay, Fak; conditions: read-out: IC50, activity toward kinase Fak
T13 construct: P1358.pFastBacHtb FAK S411-Q686-X; His6 with pFastBacHTb leader (TEV site) (N); made in house; host or cells: Sf9 (baculovirus)

B-Raf = target: T14, B-Raf (Homo sapiens, UniProt P15056); assay: AlphaScreen kinase assay, B-Raf; conditions: read-out: IC50, activity toward kinase B-Raf
T14 construct: purchased Upstate Biotechnology
T14 sequence (P15056 whole entry): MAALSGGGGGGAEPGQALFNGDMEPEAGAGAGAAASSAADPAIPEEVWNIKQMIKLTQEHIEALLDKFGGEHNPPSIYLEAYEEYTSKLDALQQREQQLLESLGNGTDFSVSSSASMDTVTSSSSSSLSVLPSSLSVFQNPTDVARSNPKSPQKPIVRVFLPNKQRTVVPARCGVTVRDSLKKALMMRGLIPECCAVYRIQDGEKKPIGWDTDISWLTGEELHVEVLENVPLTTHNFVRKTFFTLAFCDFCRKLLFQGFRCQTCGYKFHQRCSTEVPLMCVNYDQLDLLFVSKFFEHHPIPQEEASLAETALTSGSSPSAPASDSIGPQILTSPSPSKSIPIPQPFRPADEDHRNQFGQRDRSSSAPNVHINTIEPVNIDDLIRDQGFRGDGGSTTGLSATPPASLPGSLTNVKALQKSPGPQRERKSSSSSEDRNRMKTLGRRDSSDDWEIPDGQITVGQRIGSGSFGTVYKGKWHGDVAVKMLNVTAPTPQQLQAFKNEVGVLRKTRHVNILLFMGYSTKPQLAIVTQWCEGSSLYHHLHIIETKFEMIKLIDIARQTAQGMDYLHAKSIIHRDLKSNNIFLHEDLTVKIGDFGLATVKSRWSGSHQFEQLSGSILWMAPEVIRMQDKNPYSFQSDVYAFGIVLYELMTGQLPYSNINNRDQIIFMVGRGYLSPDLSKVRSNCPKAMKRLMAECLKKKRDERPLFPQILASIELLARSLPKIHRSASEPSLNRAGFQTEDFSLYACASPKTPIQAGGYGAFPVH

Kit = target: T15, Kit (Homo sapiens, UniProt P10721); assay: AlphaScreen kinase assay, Kit; conditions: read-out: IC50, activity toward kinase Kit
T15 construct: P1332.N6 BI PTP KIT M552-K948-X COD; His6 (N); made in house; host or cells: E. coli (PTP1B co-expressed)

Src = target: T16, Src (Homo sapiens, UniProt P12931); assay: AlphaScreen kinase assay, Src; conditions: read-out: IC50, activity toward kinase Src
T16 construct: P1144. pET-N6 BI-PTP SRC V86-L536-X; made in house

Measured: IC50

CS(=O)(=O)Nc1cccc(-c2cnc3[nH]cc(C(=O)c4cc(NS(C)(=O)=O)ccc4F)c3c2)c1 [Compound P-0156, N-{4-Fluoro-3-[5-(3-methanesulfonylamino-phenyl)-1H-pyrrolo[2,3-b]pyridine-3-carbonyl]-phenyl}-methanesulfonamide]
≤ 10 µM: Met | B-Raf V600E | c-Raf-1 | Btk | Ret | FGFR1 | TEC | Jnk2 | Jnk1

COC(=O)Nc1ccc(F)c(Cc2c[nH]c3ncc(-c4cccnc4)cc23)c1F [Compound P-0257, [2,4-Difluoro-3-(5-pyridin-3-yl-1H-pyrrolo[2,3-b]pyridin-3-ylmethyl)-phenyl]-carbamic acid methyl ester]
not listed: Met | Jnk2 | Src
≤ 10 µM: all other assays above

CS(=O)(=O)Nc1ccc(F)c(C(=O)c2c[nH]c3ncc(-c4cccc(S(C)(=O)=O)c4)cc23)c1 [Compound P-0297, N-{4-Fluoro-3-[5-(3-methanesulfonyl-phenyl)-1H-pyrrolo[2,3-b]pyridine-3-carbonyl]-phenyl}-methanesulfonamide]
not listed: Met | Pyk2 | Jnk3 | Fak | Kit | Src
≤ 10 µM: all other assays above

O=C(NCc1ccc(CCc2c[nH]c3ncccc23)cc1)Nc1ccccc1 [Compound P-0429]
≤ 10 µM: Btk | TEC

CCCS(=O)(=O)Nc1cccc(C(=O)c2c[nH]c3ncc(-c4ccccc4)cc23)c1F [Compound P-0897, Propane-1-sulfonic acid [2-fluoro-3-(5-phenyl-1H-pyrrolo[2,3-b]pyridine-3-carbonyl)-phenyl]-amide]
≤ 10 µM: Pyk2 | B-Raf V600E | c-Raf-1 | Btk | B-Raf | FGFR1 | TEC | Jnk1

COc1ccc(S(=O)(=O)Nc2ccc(F)c(C(=O)c3c[nH]c4ncc(Cl)cc34)c2F)cc1 [Compound P-0983, N-[3-(5-Chloro-1H-pyrrolo[2,3-b]pyridine-3-carbonyl)-2,4-difluoro-phenyl]-4-methoxy-benzenesulfonamide]
≤ 10 µM: B-Raf V600E | c-Raf-1 | B-Raf | FGFR1 | TEC | Kit

C=C(C)c1cnc2[nH]cc(C(=O)c3c(F)ccc(NS(=O)(=O)CCC)c3F)c2c1 [Compound P-0991, Propane-1-sulfonic acid [2,4-difluoro-3-(5-isopropenyl-1H-pyrrolo[2,3-b]pyridine-3-carbonyl)-phenyl]-amide]
≤ 10 µM: Pyk2 | Jnk3 | B-Raf V600E | c-Raf-1 | Btk | B-Raf | FGFR1 | TEC | Jnk1

CCCS(=O)(=O)Nc1ccc(F)c(C(=O)c2c[nH]c3ncc(C(C)C)cc23)c1F [Compound P-0997]
≤ 10 µM: Pyk2 | Src | B-Raf V600E | c-Raf-1 | Btk | B-Raf | FGFR1 | TEC | Jnk1
